Laboratory results from US20250003968A1, “ACTIVITY-BASED CELL SORTING” (MASSACHUSETTS INSTITUTE OF TECHNOLOGY, priority 2021, published 2025).
Where no end group is shown, it is not given here. [ ]: non-standard residue; d: D form. Cy5 = Cy5 fluorophore label; code o = not defined here; QSY21 = quencher dye

Key:
Eml4-Alk lungs = test: In vivo administration of QZ1-(PEG2K), IVIS imaging of explanted lungs; parameters: species or system mouse; conditions: two hours post intravenous injection
Protocol: QZ1 (Table 4) was reconstituted to 1 mg/mL in water, then reacted with mPEG-Maleimide, MW 2000 g/mol (Laysan Bio), for PEG coupling via maleimide-thiol chemistry. After completion of the reaction, the final compound was purified using HPLC. All reactions were monitored using HPLC connected with mass spectrometry. […] Eml4-Alk mice (11-12 weeks post tumor induction) and age- and sex-matched C57BL/6J healthy controls (Jackson Labs; 18-22 weeks) were anesthetized using isoflurane inhalation (Zoetis). QZ1-(PEG2K) (4.5 nmoles in 0.9% NaCl) was administered intravenously via tail vein injection. Two hours after probe injection, mice were imaged on an in vivo imaging system (IVIS, PerkinElmer) by exciting Cy5 at 640 nm and measuring emission at 680 nm. Mice were subsequently euthanized by isoflurane overdose followed by cervical dislocation. Lungs were dissected and explanted for imaging via IVIS. Fluorescence signal intensity was quantified using the Living Image software (PerkinElmer, v4).

[1] = system: CD45-, CD11b- cells from lungs; test: Activity-based cell sorting / flow cytometry after QZ1 administration; assay type: in vivo, mouse
Protocol: Eml4-Alk mice (10-12 weeks post tumor induction) and age- and sex-matched C57BL/6J healthy controls (Jackson Labs; 18-22 weeks) were euthanized by isoflurane overdose, and lungs were excised, separated into lobes, and kept in a round cell culture dish (ThermoFisher) on ice. For tumor-bearing lungs, tumors were separated from healthy tissue using forceps and scissors under a dissecting microscope, and the dissected tumors and surrounding tissue were kept in 5 mL Eppendorf tubes (Sigma Aldrich) for preparation into single-cell suspension. Tissue was minced using Noyes spring scissors (Fine Science Tools) until pieces were less than 1 cm in size, with the visual appearance of ground meat. […]
Single cell lung suspensions from Eml4-Alk mice administered QZ1 were stained with the following antibodies (catalog number, vendor, clone, fluorophore, dilution): CD44 (563508, BD, IM7, BV605, 1:200), CD105 (564746, BD, MJ7/18, BV786, 1:200), Ly6-A/E (12-5981-81, ThermoFisher, D7, PE, 1:200), CD11b (557657, BD, M1/70, APC-Cy7, 1:200), CD45 (566439, BD, 30-F11, AF488, 1:400), and EpCAM (118216, BioLegend™, G8.8, PE-Cy7, 1:200). […] Flow cytometry data was analyzed by the FlowJo software (Treestar). […]

[2] = target: T1, recombinant fibroblast activation protein (FAP) (Homo sapiens, UniProt Q12884); test: Quenched probe cleavage by recombinant FAP (fluorescence activation); assay type: biochemical; conditions: quenched probe Q1 incorporating S1
T1 sequence (Q12884 26-760 limits assumed): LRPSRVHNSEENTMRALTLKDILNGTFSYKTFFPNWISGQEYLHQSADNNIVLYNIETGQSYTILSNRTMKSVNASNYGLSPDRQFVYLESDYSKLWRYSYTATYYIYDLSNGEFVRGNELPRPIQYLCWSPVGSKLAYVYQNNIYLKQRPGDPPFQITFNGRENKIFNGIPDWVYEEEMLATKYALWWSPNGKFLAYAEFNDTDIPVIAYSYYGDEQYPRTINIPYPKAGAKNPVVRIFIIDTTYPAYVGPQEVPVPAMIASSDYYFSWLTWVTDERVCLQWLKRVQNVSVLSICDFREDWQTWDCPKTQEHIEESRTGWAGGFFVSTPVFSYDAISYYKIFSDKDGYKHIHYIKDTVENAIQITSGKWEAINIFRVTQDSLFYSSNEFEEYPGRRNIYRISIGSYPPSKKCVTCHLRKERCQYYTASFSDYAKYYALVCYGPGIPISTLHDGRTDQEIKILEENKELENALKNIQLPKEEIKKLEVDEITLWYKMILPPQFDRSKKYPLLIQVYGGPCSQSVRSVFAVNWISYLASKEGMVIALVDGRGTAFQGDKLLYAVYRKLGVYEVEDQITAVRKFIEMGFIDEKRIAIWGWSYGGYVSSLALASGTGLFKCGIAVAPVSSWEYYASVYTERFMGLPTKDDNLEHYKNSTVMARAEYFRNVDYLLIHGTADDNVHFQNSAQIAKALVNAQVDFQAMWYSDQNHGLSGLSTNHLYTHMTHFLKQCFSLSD
Protocol: FIG. 10. Fibroblast activation protein (FAP) cleaves S1 in vitro. The quenched probe Q1, incorporating the substrate S1, was incubated with recombinant FAP, and fluorescence activation was monitored over time (n=2 replicates; mean t s.d.).

Row | cleavage by FAP in vitro [2] | Substance | Cy5 fluorescence in explanted Eml4-Alk lungs relative to healthy lungs (Eml4-Alk lungs) | QZ1 staining in cells positive for mesenchymal cell markers ([1]; Eml4-Alk lungs, CD44, CD105, Ly-6A/E) | QZ1 staining in cells positive for mesenchymal cell markers ([1]; healthy lungs, separate experiment)
1 |  | (QSY21)-eeeeeeeee-c(PEG2K)-oGGPQGIWGQG-rrrrrrrrr-k(Cy5) (QSY21-[dE][dE][dE][dE][dE][dE][dE][dE][dE][dC](PEG2K)[code o]GGPQGIWGQG[dR][dR][dR][dR][dR][dR][dR][dR][dR][dK](Cy5); reading uncertain; also: X11: 5-amino-3-oxopentanoyl, other spacer, or absent, printed as (QSY21)-eeeeeeeee-c(PEG2K)-oGGPQGIWGQG-rrrrrrrrr-k(Cy5)) [QZ1, PEGylated quenched probe] | significantly increased | increased QZ1 staining | more variable pattern
2 | cleaves | GGPQGIWGQC [S1] |  |  | 
